Source: paper PMC8070284, “Pharmacokinetic Characterization of LW6, a Novel Hypoxia-Inducible Factor-1α (HIF-1α) Inhibitor in Mice” (Molecules, 2021)
Like-named read-outs stand apart in the source and are kept apart here.

What was measured:
[1] = In vivo plasma pharmacokinetics after a single i.v. or p.o. dose in male ICR mice; design: species or system mouse; settings: for half-life / Vd: male, ICR; for half-life / Vd / MRT / clearance: iv; for Cmax / Tmax: po
Source text: The animal experiments conducted in this study were approved by the Institutional Animal Care and Use Committee of the Korea Research Institute of Bioscience and Biotechnology (Chung-buk, Korea; KRIBB-AEC-15005, 9 January 2015) and performed in compliance with the National Institutes of Health Guidelines for the care and use of laboratory animals and Korean national laws for ethical conduct in the care and use of animals. Specific pathogen-free (SPF) male ICR mice (8 weeks old) were purchased from Koatech Co. (Pyeongtaek, Kyonggi, Republic of Korea) and maintained in an SPF environment at a temperature of 22 ± 2 °C with a 12-h light/dark cycle and a relative humidity of 50 ± 10%. Food and water were given ad libitum. Animals were allowed to acclimatize to the testing facility for a week before being used in the study. Animal group for oral administration was fasted overnight before the study and fed again 4 h after dosing. Mice were given a single dose of test substance intravenously (i.v.) via tail vein injection or orally (p.o.) by a disposable syringe with an oral zonde. While LW6 was administered i.v. (5 mg/kg) or p.o. (5 mg/kg), APA was administered only i.v. (5 mg/kg). The solutions were prepared in dimethylacetamide/Cremophor EL/20% v/v 2-hydroxypropyl β-cyclodextrin in de-ionized water (1/1/3 v/v; i.v. or p.o. for LW6) or ethanol/20% v/v 2-hydroxypropyl β-cyclodextrin in de-ionized water (1/9 v/v; i.v. for APA) and administered at a dose volume of 5 mL/kg for both i.v. and p.o. Blood samples were collected via saphenous vein without the use of anesthesia as described in the earlier methodology study at the time points including 0, 0.25, 0.5, 0.75, 1, 2, 4, 6, 8, and 24 h after oral administration or 0, 0.083, 0.167, 0.25, 0.5, 1, 2, 4, 6, 8, and 24 h after intravenous administration. These samples were collected into Microvette® capillary tubes at predetermined time points. The blood samples were centrifuged under refrigeration at 12,000× g for 3 min and then kept frozen at −20 °C until analysis.
Plasma samples were prepared for analysis by the protein precipitation method. An aliquot of 15 µL from each plasma sample was transferred to a PCR tube (Axygen, Union City, CA, USA). Four volumes of acetonitrile containing the analytical internal standard (IS) 4-methylumbelliferone were added and the resulting mixture was vortexed for 10 min on a Multi-Tube vortexer (VWR International, West Chester, PA, USA), and sonicated for 30 min at room temperature. The tube was centrifuged at 12,000× g for 10 min and the supernatant was analyzed for the test substance. Sample analysis was performed by 3200 Q TRAP LC-MS/MS system (Applied Biosystems, Concord, ON, Canada) in a negative MRM mode. The analytical methods are described below.
Pharmacokinetic parameters were calculated by noncompartmental analysis of the plasma concentration-time profiles using Kinetica^TM 4.4.1 (Thermo Fisher Scientific, Inc., Woburn, MA, USA). The areas under the plasma concentration–time curves (AUC) were calculated by the linear-trapezoidal method. Total body clearance (CL) was calculated as follows: CL = Dose/AUC0–inf. Terminal elimination half-life (t1/2) was calculated by the following equation: t1/2 = 0.693/λz, where λz is the terminal disposition rate constant. Volume of distribution at steady state (Vss) was calculated as follows: Vss = CL × AUMC0–inf/AUC0–inf, where AUMC0–inf is the area under the first moment of the plasma concentration-time curve extrapolated to infinity. Oral bioavailability (F) was calculated using the following equation:(1) F=(AUCpo/Dosepo)/(AUCiv/Doseiv)×100
Fraction of dose converted to a systemically available metabolite was calculated by the following equation, where D is the dose of the parent, AUC(m) is the area under the curve of metabolite, and CL(m) is the systemic clearance of metabolite:(2) % of dose = AUC(m) ×CL(m)/D×parent mol. wt./metabolite mol. wt. ×100 […]

[2] = Metabolic stability in pooled mouse liver microsomes; type: in vitro ADME
Description: LW6 (1 µM) was incubated with pooled mouse liver microsomes (0.5 mg/mL) in the absence or presence of NADPH (1 mM) to determine its conversion to APA. LW6 was degraded slowly in the absence or presence of NADPH, with 63% or 65% remaining after 60 min microsomal incubations, respectively (Figure 3A). […] APA, following its formation, gradually disappeared from the microsomal incubation media only in the presence of NAPDH (Figure 3A). To determine whether APA was metabolized by cytochrome P450 (CYP450), APA (1 µM) also was incubated with pooled male mouse liver microsomes (0.5 mg/mL) in the absence or presence of NADPH (1 mM).
All incubations were conducted in triplicate at 37 °C in eight-well tube strips placed in an 8 × 12 rack (VWR, Emeryville, CA). Incubation mixtures consisted of mouse liver microsomes (0.5 mg protein/mL), NADPH (1 mM), and LW6 (1 µM) or APA (1 µM) in 0.1 M potassium phosphate buffer (pH 7.4). The final incubation volume was 160 µL and the final acetonitrile content was 1%. Samples were preincubated for 5 min at 37 °C before adding LW6 or APA to initiate the reaction. The reaction was terminated at 0, 5, 15, 30, and 60 min by the addition of 320 µL of ice-cold acetonitrile containing the internal standard. Incubation mixtures were then centrifuged at 910× g for 10 min and the supernatant was analyzed by the LC-ESI/MS/MS method described below for quantitation of LW6 and APA.

[3] = test system: HCT116 xenograft; assay: HCT116 xenograft model study; type: in vivo; settings: data not shown
[4] = Stability in mouse serum; type: in vitro ADME
Description: All incubations were conducted in triplicate at 37 °C in eight-well tube strips placed in an 8 × 12 rack (VWR, Emeryville, CA, USA) with 50 µL of mouse serum in each tube. LW6 (1 mM) dissolved in acetonitrile was added to a final concentration of […] (1% acetonitrile) to initiate the study. The reaction was terminated at 0, 1, 2, 4, and 6 h by adding 150 µL of ice-cold acetonitrile containing the internal standard. The eight-well cluster tube plate was centrifuged at 910× g for 10 min and the supernatant was analyzed by the LC-ESI/MS/MS method described below for quantitation of LW6 and APA.

[5] = Stability in phosphate buffer at physiological pH; type: physicochemical; settings: data not shown
[6] = test system: Caco-2 cells
[7] = test system: HIF-1α; settings: cited from earlier work
[8] = in vitro; settings: human
[9] = mouse, plasma, 5 mg/kg, plasma, analyte = label, after single i.v. dose of LW6 5 mg/kg, male ICR mice, read-out: t1/2 (terminal) (converted)
[10] = mouse, plasma, analyte = label, after single i.v. dose of LW6 5 mg/kg, male ICR mice
[11] = mouse, plasma, analyte = label, after single p.o. dose of LW6 5 mg/kg, male ICR mice
[12] = mouse, plasma, analyte = label, after single p.o. dose of LW6 5 mg/kg, male ICR mice, n = 5
[13] = plasma, analyte = label, after single i.v. dose of LW6 5 mg/kg, male ICR mice
[14] = plasma, analyte = label, after single p.o. dose of LW6 5 mg/kg, male ICR mice
[15] = single i.v. dose of APA 5 mg/kg, male ICR mice, n = 5
[16] = Caco-2, pH 7.4, Typical apparent permeability coefficient (Papp) values

O=C(O)COc1ccc(C23CC4CC(CC(C4)C2)C3)cc1 [APA, (4-adamantan-1-yl-phenoxy)acetic acid]
half-life [1, 9]: 2.7 ± 0.2 h | Vd ([1]; mouse, plasma, 5 mg/kg, single i.v. dose of APA 5 mg/kg, male ICR mice, n = 5, read-out: Vss): 0.4 ± 0.1 L/kg | Vd ([1]; mouse, plasma, 5 mg/kg, single i.v. dose of APA 5 mg/kg, male ICR mice, n = 5, read-out: Vz): 0.5 ± 0.2 L/kg | half-life ([1]; mouse, plasma, 5 mg/kg, single i.v. dose of APA 5 mg/kg, male ICR mice, n = 5, read-out: t1/2 (converted)): 2.4 ± 0.4 h | MRT [1, 10]: 3.6 ± 0.2 h | clearance ([1]; mouse, plasma, single i.v. dose of APA 5 mg/kg, male ICR mice, n = 5, read-out: CL (converted)): 1.67 mL/min/kg | Cmax [1, 11]: 4240 ± 1260 ng/mL | Tmax [1, 12]: 0.7 ± 0.1 h | AUC0–inf [1, 13]: 17,759.9 ± 3194.1 ng/hr/mL | AUC0–t [1, 13]: 17,731.4 ± 3190.5 ng/hr/mL | AUC0–inf [1, 14]: 14,744.8 ± 5517.4 ng/hr/mL | AUC0–t [1, 14]: 14,615.3 ± 5507.8 ng/hr/mL | AUC0–inf [1, 15]: 39,624.7 ± 9502.30 ng/hr/mL | AUC0–t [1, 15]: 37,703.8 ± 10,162.9 ng/hr/mL | CL [1, 15]: 1.7 ± 0 mL/min/kg | APA depletion in mouse liver microsomes (in words) ([2]; APA 1 µM, 0.5 mg/mL microsomes, presence of NADPH (1 mM)): progressively decreased | Tumor growth inhibition relative to the control group [3]: up to 43.3%

COC(=O)c1ccc(O)c(NC(=O)COc2ccc(C34CC5CC(CC(C5)C3)C4)cc2)c1 [LW6]
Time beyond which plasma level was below the quantitation limit ([1]; after i.v. LW6 5 mg/kg): 4 h | Time beyond which plasma level was below the quantitation limit ([1]; after p.o. LW6 5 mg/kg): 1 h | half-life [1, 9]: 0.6 ± 0.1 h | Vd ([1]; mouse, plasma, 5 mg/kg, single i.v. dose of LW6 5 mg/kg, male ICR mice, read-out: Vss (volume of distribution at steady state)): 0.5 ± 0.1 L/kg | MRT [1, 10]: 0.3 h | clearance ([1]; mouse, plasma, single i.v. dose of LW6 5 mg/kg, male ICR mice, read-out: CL (systemic clearance) (converted)): 28.3 mL/min/kg | bioavailability ([1]; mouse, plasma, oral, LW6 5 mg/kg p.o. vs 5 mg/kg i.v., calculated using AUC0–t, male ICR mice, read-out: F (oral bioavailability)): 1.7 ± 1.8% | Cmax [1, 11]: 65.5 ± 47.3 ng/mL | Tmax [1, 12]: 0.3 ± 0.1 h | Decrease of plasma exposure of LW6 when administered orally ([1]; oral vs intravenous, 5 mg/kg): about 60 fold | AUC0–inf [1, 13]: 2957.1 ± 215.4 ng/h/mL | AUC0–t [1, 13]: 2949.3 ± 218.4 ng/h/mL | AUC0–t [1, 14]: 49.5 ± 52.5 ng/h/mL | Vz ([1]; single i.v. dose of LW6 5 mg/kg, male ICR mice): 1.6 ± 0.3 Lkg | LW6 remaining after 60 min microsomal incubation ([2]; 1 µM, 0.5 mg/mL microsomes, absence of NADPH): 63% | LW6 remaining after 60 min microsomal incubation ([2]; 1 µM, 0.5 mg/mL microsomes, presence of NADPH (1 mM)): 65% | t1/2 of conversion to APA in liver microsomes ([2]; 1 µM, 0.5 mg/mL mouse liver microsomes): > 1 h | half-life at 1 µM ([2]; mouse, pooled mouse liver microsomes, pH 7.4, as stated in abstract, read-out: t1/2 of degradation in mouse liver microsomes): > 1 h | half-life at 5 µM ([4]; ICR, mouse serum, 5 µM, up to 6 h, read-out: t1/2 of degradation in serum): > 6 h | Conversion to APA in mouse serum (in words) ([4]; LW6 5 µM): converted slowly to APA | Stability in phosphate buffer [5]: stable | Permeability across Caco-2 cell monolayers (in words) [6]: moderately permeable | Accumulation of HIF-1α [7]: inhibited | HIF-1α protein expression ([7]; without affecting HIF-1β expression, via regulation of VHL): decreased | Papp at 120 min, 5 µM ([8]; Caco-2, pH 7.4, Papp): 2.1 ± 0.4 ×10⁻⁶ cm/s

COCCc1ccc(OCC(O)CNC(C)C)cc1 (stereo not shown) [Metoprolol, metoprolol]
Papp at 120 min, 5 µM ([8]; Caco-2, pH 7.4, Papp): 35.3 ± 0.6 ×10⁻⁶ cm/s | Papp at 120 min, 5 µM [8, 16]: > 25 ×10⁻⁶ cm/s

CNC(=C[N+](=O)[O-])NCCSCc1ccc(CN(C)C)o1 [Ranitidine, ranitidine]
Papp at 120 min, 5 µM ([8]; Caco-2, pH 7.4, Papp): 0.8 ×10⁻⁶ cm/s | Papp at 120 min, 5 µM [8, 16]: < 2 ×10⁻⁶ cm/s
